Columns and labels:
[1] = biological target: wild-type EZH2 (PRC2 enzyme) (Homo sapiens (Human), UniProt Q15910); test: PRC2 enzyme assay on peptide substrate (wild-type EZH2); assay type: biochemical; details: wild-type PRC2 4 nM, H3K27me0 peptide substrate, 3H-SAM; read-out: WT EZH2 IC50
Description: S-adenosylmethionine (SAM), S-adenosylhomocyteine (SAH), bicine, KCl, Tween20, dimethylsulfoxide (DMSO) and bovine skin gelatin (BSG) were purchased from Sigma-Aldrich at the highest level of purity possible. Dithiothreitol (DTT) was purchased from EMD. ^3H-SAM was purchased from American Radiolabeled Chemicals with a specific activity of 80 Ci/mmol. 384-well streptavidin Flashplates were purchased from PerkinElmer.
Peptides representative of human histone H3 residues 21-44 containing either an unmodified lysine 27 (H3K27me0) or dimethylated lysine 27 (H3K27me2) were synthesized with a C-terminal G(K-biotin) linker-affinity tag motif and a C-terminal amide cap by 21st Century Biochemicals. The peptides were high-performance liquid chromatography (HPLC) purified to greater than 95% purity and confirmed by liquid chromatography mass spectrometry (LC-MS). The sequences are listed below.
Human PRC2 enzymes were purified as 4-component enzyme complexes co-expressed in Spodoptera frugiperda (sf9) cells using a baculovirus expression system. The subunits expressed were wild-type EZH2 (NM_004456) or EZH2 Y641F, N, H, S or C mutants generated from the wild-type EZH2 construct, EED (NM_003797), Suz12 (NM_015355) and RbAp48 (NM_005610). The EED subunit contained an N-terminal FLAG tag that was used to purify the entire 4-component complex from sf9 cell lysates. The purity of the complexes met or exceeded 95% as determined by SDS-PAGE and Agilent Bioanalyzer analysis. Concentrations of enzyme stock concentrations (generally 0.3-1.0 mg/mL) was determined using a Bradford assay against a bovine serum albumin (BSA) standard.
The assays were all performed in a buffer consisting of 20 mM bicine (pH=7.6), 0.5 mM DTT, 0.005% BSG and 0.002% Tween20, prepared on the day of use. […] The plates were then read in a PerkinElmer TopCount platereader to measure the quantity of ^3H-labeled peptide bound to the Flashplate surface, measured as disintegrations per minute (dpm) or alternatively, referred to as counts per minute (cpm). […]

[2] = tested on: H3K27me3 in WSU-DLCL2 cells; test: WSU-DLCL2 methylation assay (H3K27me3 ELISA); assay type: cell-based; details: Homo sapiens, WSUDLCL2, 96 hours incubation, H3K27me3 normalized to total H3
Description: WSU-DLCL2 suspension cells were purchased from DSMZ (German Collection of Microorganisms and Cell Cultures, Braunschweig, Germany). RPMI/Glutamax Medium, Penicillin-Streptomycin, Heat Inactivated Fetal Bovine Serum, and D-PBS were purchased from Life Technologies, Grand Island, N.Y., USA. Extraction Buffer and Neutralization Buffer (5×) were purchased from Active Motif, Carlsbad, Calif., USA. Rabbit anti-Histone H3 antibody was purchased from Abcam, Cambridge, Mass., USA. Rabbit anti-H3K27me3 and HRP-conjugated anti-rabbit-IgG were purchased from Cell Signaling Technology, Danvers, Mass., USA. TMB “Super Sensitive” substrate was sourced from BioFX Laboratories, Owings Mills, Md., USA. IgG-free Bovine Serum Albumin was purchased from Jackson ImmunoResearch, West Grove, Pa., USA. PBS with Tween (10×PBST) was purchased from KPL, Gaithersburg, Md., USA. Sulfuric Acid was purchased from Ricca Chemical, Arlington, Tex., USA. Immulon ELISA plates were purchased from Thermo, Rochester, N.Y., USA. V-bottom cell culture plates were purchased from Corning Inc., Corning, N.Y., USA. V-bottom polypropylene plates were purchased from Greiner Bio-One, Monroe, N.C., USA.
WSU-DLCL2 suspension cells were maintained in growth medium (RPMI 1640 supplemented with 10% v/v heat inactivated fetal bovine serum and 100 units/mL penicillin-streptomycin) and cultured at 37° C. under 5% CO2. […]

wild-type EZH2 (PRC2 enzyme), sequence (Q15910 other isoform, or with tags, fused parts or gaps): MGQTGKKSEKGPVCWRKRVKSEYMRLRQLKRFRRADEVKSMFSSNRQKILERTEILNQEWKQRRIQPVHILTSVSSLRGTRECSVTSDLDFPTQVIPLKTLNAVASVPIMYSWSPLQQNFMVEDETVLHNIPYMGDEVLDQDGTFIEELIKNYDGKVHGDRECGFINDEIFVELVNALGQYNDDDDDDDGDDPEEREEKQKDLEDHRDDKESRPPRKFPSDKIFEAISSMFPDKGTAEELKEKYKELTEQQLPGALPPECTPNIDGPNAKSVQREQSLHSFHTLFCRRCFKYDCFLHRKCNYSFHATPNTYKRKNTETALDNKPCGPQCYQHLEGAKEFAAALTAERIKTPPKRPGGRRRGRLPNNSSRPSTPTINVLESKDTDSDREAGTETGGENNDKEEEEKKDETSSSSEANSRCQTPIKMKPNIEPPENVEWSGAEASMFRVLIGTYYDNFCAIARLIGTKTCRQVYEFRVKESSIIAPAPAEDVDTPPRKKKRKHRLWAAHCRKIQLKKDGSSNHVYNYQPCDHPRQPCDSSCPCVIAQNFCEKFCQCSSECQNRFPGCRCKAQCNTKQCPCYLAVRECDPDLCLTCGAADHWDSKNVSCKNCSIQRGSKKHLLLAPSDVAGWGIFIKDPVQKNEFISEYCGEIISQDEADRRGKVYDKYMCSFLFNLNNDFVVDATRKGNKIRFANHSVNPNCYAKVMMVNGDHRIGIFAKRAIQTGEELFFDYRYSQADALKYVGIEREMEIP
wild-type EZH2 (PRC2 enzyme), sequence (O75530 whole entry partner): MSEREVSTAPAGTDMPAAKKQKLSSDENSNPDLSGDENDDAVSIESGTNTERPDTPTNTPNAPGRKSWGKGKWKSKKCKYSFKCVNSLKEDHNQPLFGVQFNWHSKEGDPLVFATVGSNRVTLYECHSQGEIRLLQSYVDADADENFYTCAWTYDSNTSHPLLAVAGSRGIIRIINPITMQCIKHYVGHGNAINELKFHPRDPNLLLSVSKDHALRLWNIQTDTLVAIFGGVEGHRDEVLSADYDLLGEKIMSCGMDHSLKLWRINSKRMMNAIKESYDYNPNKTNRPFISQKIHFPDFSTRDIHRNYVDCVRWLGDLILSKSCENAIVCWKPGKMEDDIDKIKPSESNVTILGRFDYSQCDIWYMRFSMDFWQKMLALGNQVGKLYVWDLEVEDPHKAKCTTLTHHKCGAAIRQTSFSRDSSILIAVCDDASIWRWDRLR
wild-type EZH2 (PRC2 enzyme), sequence (Q15022 whole entry partner): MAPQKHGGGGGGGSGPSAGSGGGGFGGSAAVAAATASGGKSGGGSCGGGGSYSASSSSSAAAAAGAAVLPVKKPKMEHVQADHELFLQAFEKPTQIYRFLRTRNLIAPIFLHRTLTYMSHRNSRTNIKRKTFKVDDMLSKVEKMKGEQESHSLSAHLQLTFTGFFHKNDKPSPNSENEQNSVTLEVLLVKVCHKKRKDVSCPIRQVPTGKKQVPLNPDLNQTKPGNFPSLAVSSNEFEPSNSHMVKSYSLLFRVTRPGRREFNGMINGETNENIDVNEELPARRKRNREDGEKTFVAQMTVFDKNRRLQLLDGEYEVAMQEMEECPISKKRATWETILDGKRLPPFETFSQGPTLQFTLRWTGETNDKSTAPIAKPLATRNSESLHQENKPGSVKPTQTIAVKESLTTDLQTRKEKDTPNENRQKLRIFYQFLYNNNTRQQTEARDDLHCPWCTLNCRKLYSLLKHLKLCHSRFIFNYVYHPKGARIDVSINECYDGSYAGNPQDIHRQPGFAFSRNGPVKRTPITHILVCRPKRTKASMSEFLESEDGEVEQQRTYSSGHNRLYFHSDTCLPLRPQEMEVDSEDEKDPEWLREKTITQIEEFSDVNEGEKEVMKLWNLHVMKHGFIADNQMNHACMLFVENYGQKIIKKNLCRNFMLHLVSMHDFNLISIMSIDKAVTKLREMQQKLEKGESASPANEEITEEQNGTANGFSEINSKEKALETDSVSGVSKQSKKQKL
wild-type EZH2 (PRC2 enzyme), sequence (Q09028 whole entry partner): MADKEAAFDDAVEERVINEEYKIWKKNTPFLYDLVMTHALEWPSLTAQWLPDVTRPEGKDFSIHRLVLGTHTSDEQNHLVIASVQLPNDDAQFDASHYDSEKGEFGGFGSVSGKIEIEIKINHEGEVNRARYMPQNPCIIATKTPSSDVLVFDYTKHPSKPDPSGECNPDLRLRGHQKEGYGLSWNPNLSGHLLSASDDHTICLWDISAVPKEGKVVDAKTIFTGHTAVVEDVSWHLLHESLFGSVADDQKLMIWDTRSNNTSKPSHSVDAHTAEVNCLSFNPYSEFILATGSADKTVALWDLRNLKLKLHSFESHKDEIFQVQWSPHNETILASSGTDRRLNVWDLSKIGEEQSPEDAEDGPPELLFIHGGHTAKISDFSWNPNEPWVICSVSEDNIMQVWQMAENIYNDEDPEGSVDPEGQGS

Cc1cc(=O)c(CNC(=O)c2cc(C3=CC(C)(C)NC(C)(C)C3)nc3c2cnn3C(C)C)c(C)[nH]1 [Compound 1, N-((2,6-dimethyl-4-oxo-1,4-dihydropyridin-3-yl)methyl)-1-isopropyl-6-(2,2,6,6-tetramethyl-1,2,3,6-tetrahydropyridin-4-yl)-1H-pyrazolo[3,4-b]pyridine-4-carboxamide]
IC50 [1]: 6.6 µM

Cc1cc(=O)c(CNC(=O)c2cc(C3CC(C)(C)NC(C)(C)C3)nc3c2cnn3C(C)C)c(C)[nH]1 [Compound 2, N-((2,6-dimethyl-4-oxo-1,4-dihydropyridin-3-yl)methyl)-1-isopropyl-6-(2,2,6,6-tetramethylpiperidin-4-yl)-1H-pyrazolo [3,4-b]pyridine-4-carboxamide]
IC50 [1]: 7.1 µM

CCC(C)n1cc(C)c2c(C(=O)NCc3c(C)[nH]c(C)cc3=O)cc(-c3ccc(N4CCNCC4)nc3)cc21 (stereo not shown) [Compound 4, 1-(sec-butyl)-N-((2,6-dimethyl-4-oxo-1,4-dihydropyridin-3-yl)methyl)-3-methyl-6-(6-(piperazin-1-yl)pyridin-3-yl)-1H-indole-4-carboxamide]
IC50 [2]: 11.9 µM | IC50 [1]: 0.028 µM
